Reference: patent US6127543A, “Antimalarial organometallic iron complexes” (Universite des Sciences et Technologies de Lille, priority 1995, dated 2000)
In brackets after ≈: the same amount, converted by molar mass. Where two headings read alike, the source gives them in different places.

Columns and labels:
[1] = tested on: field strains (Francevilloises strains); test: In vitro inhibition of parasite proliferation (3[H] hypoxanthine incorporation), field strains; assay type: cell-based, Plasmodium falciparum
Protocol: As mentioned above, the in vitro activity of organometallic complexes of the invention was measured on field strains.
(§1) The proliferation of the parasites is measured by incorporation of ^3 [H] hypoxanthine applied to the cultures 16 hours before the end of the culture. The radioactive hypoxanthine is absorbed by the developing parasites. The quantity absorbed is measured by a Beta counter in counts per minute.

[2] = tested on: P. falciparum line M25 (chloroquinine-sensitive); test: In vitro activity on established line M25 (48 h culture); assay type: cell-based; conditions: Plasmodium falciparum, two experiments, one line each
Protocol: as §1
(§2) Three P. faciparum lines M25, chloroquinine-sensitive, and FCM 6 and FCM 17, chloroquinine-resistant, were cultured at a parasitemia rate approaching 1%, at the trophozoite stage, for a period of 48 hours.

[3] = tested on: P. falciparum line FCM 17 (chloroquinine-resistant); test: microbe, parasite or virus in culture; assay type: cell-based; conditions: Plasmodium falciparum, FCM17, chloroquinine-resistant; two experiments, one line each
Protocol: as §1, §2

[4] = tested on: P. falciparum line FCM 6 (chloroquinine-resistant); test: microbe, parasite or virus in culture; assay type: cell-based; conditions: Plasmodium falciparum, FCM6, chloroquinine-resistant; two experiments, one line each
Protocol: as §1, §2

[5] = tested on: P. berghei, N strain; test: In vivo test in mice infected with P. berghei, N strain; conditions: for Mortality: female SWISS mice, 4 subcutaneous injections D0-D2
Protocol: Methodology: the laboratory mice can be infected with various strains of rodent Plasmodium. Female SWISS mice (about 30 g) (5 per group) were inoculated on D0 with […] P. berghei parasites, chloroquinine-sensitive, lethal strain. The mice were treated between D0 and D2 using 4 subcutaneous injections of chloroquinine or of compound SN1, with a total dose of 1 or 10 mg/kg of weight. The parasitemia and mortality were monitored from D3, for at least 40 days.
The compound SN1 and its salt, SN1 ditartrate, were tested.

[6] = tested on: P. yoelii, strain NS; test: In vivo test in mice infected with chloroquinine-resistant P. yoelii, strain NS; conditions: 10 mg/kg

SMILES: CCN(CC)CCCC(C)Nc1ccnc2cc(Cl)ccc12 (centres unmarked) [Chloroquinine]
- IC50 ([1]; Plasmodium falciparum, Strain No. 17): 200 nM
- IC50 ([1]; Plasmodium falciparum, Strain No. 265): > 1000 nM
- IC50 ([1]; Plasmodium falciparum, Strain No. 309): 980 nM
- IC50 ([1]; Plasmodium falciparum, Strain No. 823): > 1000 nM
- IC50 ([1]; Plasmodium falciparum, Strain No. 917): 190 nM
- IC50 ([1]; Plasmodium falciparum, Strain No. 926): > 1000 nM
- IC50 ([1]; Plasmodium falciparum, Strain No. 935): > 1000 nM
- IC50 ([1]; Plasmodium falciparum, read-out: IC50 (range over strains), Francevilloises strains, 7 strains tested): 190 to 1000 nM
- IC50 ([1]; Plasmodium falciparum, read-out: ID 50, Strain No. 17): 2000 nM
- IC50 ([1]; Plasmodium falciparum, read-out: ID 50, Strain No. 265): > 10000 nM
- IC50 ([1]; Plasmodium falciparum, read-out: ID 50, Strain No. 309): 9800 nM
- IC50 ([1]; Plasmodium falciparum, read-out: ID 50, Strain No. 823): > 10000 nM
- IC50 ([1]; Plasmodium falciparum, read-out: ID 50, Strain No. 917): 1900 nM
- IC50 ([1]; Plasmodium falciparum, read-out: ID 50, Strain No. 926): > 10000 nM
- IC50 ([1]; Plasmodium falciparum, read-out: ID 50, Strain No. 935): > 10000 nM
- chloroquinine-resistance of the strains ([1]; in words, Francevilloises strains): high chloroquinine-resistance
- IC50 [2]: 0.069 µg/mL (≈ 0.216 µM)
- IC50 [3]: 0.555 µg/mL (≈ 1.74 µM)
- IC50 [4]: 0.492 µg/mL (≈ 1.54 µM)
- Mortality ([5]; Exp 1, total dose 1 mg/kg): 5/5
- Mortality ([5]; Exp 1, total dose 10 mg/kg): 5/5
- Mortality ([5]; Exp 2, total dose 1 mg/kg): 5/5
- Mortality ([5]; Exp 2, total dose 10 mg/kg): 5/5
- parasites detected / parasitemia [6]: high parasitemia

SMILES: CN(C)Cc1ccc[c-]1CNc1ccnc2cc(Cl)ccc12.[Fe+2].c1cc[cH-]c1 (centres unmarked) [SN1]
- IC50 ([1]; Strain No. 17, read-out: IC50): 20 nM
- IC50 ([1]; Strain No. 265, read-out: IC50): 170 nM
- IC50 ([1]; Strain No. 309, read-out: IC50): 110 nM
- IC50 ([1]; Strain No. 823, read-out: IC50): 120 nM
- IC50 ([1]; Strain No. 917, read-out: IC50): 10 nM
- IC50 ([1]; Strain No. 926, read-out: IC50): 230 nM
- IC50 ([1]; Strain No. 935, read-out: IC50): 120 nM
- action on the sole chloroquinine-resistant strain tested so far ([1]; in words, in vitro): marked action
- action on the inhibition of parasitemia ([1]; in words, in vitro, compared with quinine): greater action on the inhibition of parasitemia than quinine
- Mortality ([5]; Exp 1, total dose 1 mg/kg): 5/5
- Mortality ([5]; Exp 1, total dose 10 mg/kg): 1/5
- Mortality ([5]; Exp 2, total dose 1 mg/kg): 5/5
- Mortality ([5]; Exp 2, total dose 10 mg/kg): 0/5
- in vivo activity compared with chloroquinine ([5]; in words, mice, P. berghei): better activity than chloroquinine in vivo
